This note sets out measurements from patent US20240083857A1, “2-Methyl-Quinazolines” (Bayer Pharma Aktiengesellschaft, priority 2017, published 2024).

The structures appear in SMILES notation. Where two headings read alike, the source gives them in different places. Where only a bound is given, the exact number is not on record here.

The target of test [1] is human SOS1 (loading of human K-Ras^G12C-GDP with fluorescent GTP-analog) (Homo sapiens, UniProt Q07889). As to the kind of experiment: Biochemical assay 3: K-Ras^G12C activation assay by hSOS1 (HTRF). Particulars: for inhibition at 20 µM: read-out: Assay 3 (KRAS-Activation by SOS no GTP) activity expressed as % inhibition at 20 μM. Background: TR-FRET usually uses a lanthanide donor and a delayed reading to cut background.

Test [2] has as its target K-Ras^G12C : hSOS1 interaction (Homo sapiens, UniProt Q07889). The test can be described thus: Biochemical assay 1: K-Ras^G12C interaction assay with hSOS1 (HTRF). It counts as binding. Particulars: for IC50: E-notation values, unit inferred, read-out: Assay 1 (KRAS-SOS interaction) IC50; for inhibition at 20 µM: read-out: Assay 1 (KRAS-SOS Interaction) activity expressed as % inhibition at 20 μM.

Setting [3] is: E-notation values, unit inferred, read-out: Assay 3 (KRAS-Activation) IC50.

Take `COc1cc2nc(C)nc(N[C@H](C)c3cccc(-c4ccccc4CC(N)=O)c3)c2cc1OC` [Example 393, 2-(3′-{(1R)-1-[(6,7-dimethoxy-2-methylquinazolin-4-yl)amno]ethyl}biphenyl-2-yl)acetamide]: the IC50 (usually the concentration at which inhibition is half-maximal) in test [1] (setting [3]) amounted to 1040 nM; in test [2], 244 nM.

Take `COc1cc2nc(C)nc(NC(C)c3ccc(-c4ccccc4C(C)(C)N)s3)c2cc1OC` (stereo not drawn) [Example 455, N-[1-{5-[2-(2-aminopropan-2-yl)phenyl]thiophen-2-yl}ethyl]-6,7-dimethoxy-2-methylquinazolin-4-amine]: the values for the IC50 in test [1] (setting [3]) and in test [2] were 769 nM and 397 nM, respectively.

In the case of `COc1cc2nc(C)nc(NC(C)c3ccc(-c4ccccc4C4CC(=O)N4)s3)c2cc1OC` (stereo not drawn) [Example 411, 4-[2-(5-{1-[(6,7-dimethoxy-2-methylquinazolin-4-yl)amino]ethyl}thiophen-2-yl)phenyl]azetidin-2-one], the figures for the IC50 in test [1] (setting [3]) and in test [2] were > 20000 nM and 14500 nM, respectively.

In the case of `Cc1nc(NC(C)c2ccc(-c3ccccc3CN(C)C)s2)c2cc(N3CCN(Cc4ccccc4)C(=O)C3)ccc2n1` (stereo not drawn) [Example 458, 1-benzyl-4-(4-{[1-(5-{2-[(dimethylamino)methyl]phenyl}thiophen-2-yl)ethyl]amino}-2-methylquinazolin-6-yl)piperazin-2-one], the IC50 in test [1] (setting [3]) came out at 45.5 nM; in test [2], 48 nM.

In the case of `CC(=O)Nc1ccc2nc(C)nc(NC(C)c3ccc(-c4ccccc4CN(C)C)s3)c2c1` (stereo not drawn) [Example 420, N-(4-{[1-(5-{2-[(dimethylamino)methyl]phenyl}thiophen-2-yl)ethyl]amino}-2-methylquinazolin-6-yl)acetamide], the results for the half-maximal inhibitory concentration (IC50) in test [1] (setting [3]) and in test [2] were 579 nM and 303 nM, respectively.

Regarding `COc1cc2nc(C)nc(NC(C)c3ccc(-n4ccc(CCO)n4)o3)c2cc1OC` (stereo not drawn) [Example 226, 2-[1-(5-{1-[(6,7-dimethoxy-2-methylquinazolin-4-yl)amino]ethyl}furan-2-yl)-1H-pyrazol-3-yl]ethanol], the inhibition (as a rule, the drop in the measured response relative to a control, in per cent) at 20 µM was 24% in test [1] (no GTP) and 43% in test [2].

Turning to `COc1cc2nc(C)nc(NC(C)c3ccc(-c4ccc(F)cc4CNC(=O)c4cc5ccccc5[nH]4)s3)c2cc1OC` (stereo not drawn) [Example 296, N-[2-(5-{1-[(6,7-dimethoxy-2-methylquinazolin-4-yl)amino]ethyl}thiophen-2-yl)-5-fluorobenzyl]-1H-indole-2-carboxamide], the IC50 in test [1] (no GTP, read-out: Assay 3 (KRAS-Activation by SOS no GTP) activity expressed as IC50) was 11800 nM. Besides, the inhibition at 20 µM in test [2] is 34%.

In the case of `Cc1nc(NC(C)c2ccc(Br)s2)c2cc(N3CCCC3)ccc2n1` (stereo not drawn) [Example 419, N-[1-(5-bromothiophen-2-yl)ethyl]-2-methyl-6-(pyrrolidin-1-yl)quinazolin-4-amine], the IC50 was determined as 14300 nM in test [1] (setting [3]) and 6450 nM in test [2].

Take `COc1cc2nc(C)nc(NC(C)c3ccc(-c4ccc(CNC(=O)OC(C)(C)C)o4)s3)c2cc1OC` (stereo not drawn) [Example 236, tert-butyl {[5-(5-{1-[(6,7-dimethoxy-2-methylquinazolin-4-yl)amino]ethyl}thiophen-2-yl)furan-2-yl]methyl}carbamate]: the inhibition at 20 µM was 17% in test [1] (no GTP) and 37% in test [2].
